The values below come from a melting point compilation (Tetko et al.; mined from patent text by program, amines drawn as free bases though some values may be those of a salt).

Structures are written as SMILES. Where only a bound is given, the exact number is not on record here.

For the compound `CCc1ccc(N2CCCN(c3cc[nH]c(=S)c3C#N)CC2)cc1`, the melting point fell in the range of 226 to 229 °C.

For `CCCC1=C(C#N)C(c2ccccc2Cl)c2c(n[nH]c2C2CC2)N1` (configuration not stated), the melting point was 270 °C.

Compound `CC1(C#N)CCc2cc(O)c(C(C)(C)C)cc2O1` (configuration not stated) returned a melting point of 153 to 155 °C.

As for `COc1cccc2c1nc(C1CC1)n2Cc1c(F)cccc1F`, the melting point lay in the range of 136 to 139 °C.

Turning to `CCN(C)c1nc2sc3c(NCc4ccncc4)ncnc3c2c2c1CCC(C)(C)C2`, the melting point came to 207 °C.

`COc1cc2cnnc(N3CCC(CC(C)O)CC3)c2cc1OC` (configuration not stated) came in with a melting point of 154 to 156 °C.

Take `O=C(O)c1ccc(C(=O)Nc2ccccc2C(c2ccc(O)cc2)c2ccc(O)cc2)cc1`: the melting point fell in the range of 280 to 282 °C.

Regarding `C#C[C@@](C)(O)CCC1=C(C)C(=O)C(C)=C(C)C1=O`, the melting point was 80 to 82 °C.

`CCCN=C(N)Nc1ccnc(CCCCc2c[nH]cn2)n1` had a melting point of 172 to 174 °C.

Regarding `O=[N+]([O-])OCC#CCO`, the melting point is 107 to 110 °C.

`O=C1CCC(N2Cc3c(OCc4ccc(CN5CCC(c6cccc(F)c6)CC5)cc4)cccc3C2=O)C(=O)N1` (configuration not stated) came in with a melting point of 200 to 202 °C.

For the compound `CCN(CC)C(=O)c1cc(-c2ccccc2)ccc1OC`, the melting point was 85 to 87 °C.

`CCn1cc(-c2c(-c3ccccc3F)nn3ccncc23)ccc1=O`: the melting point lay within 173 to 174 °C.

Take `CCOc1nc2c(N)nc3cccnc3c2n1CC1CCOCC1`: the melting point fell in the range of 197 to 200 °C.

Compound `CCCCc1oc2ccccc2c1C(=O)NCc1ccc2c(-c3ccc(C(C)(C)C)cc3)c(OCC#N)ccc2c1` showed a melting point of 162 to 164 °C.

Turning to `CN(C)c1ccc(C(=O)NC2CCN(C(c3ccccc3)c3ccccc3)CC2)c(N)c1`, the melting point came out at 118 °C.

With `O=C(NO)c1ccc(OC/C=C/COc2ccc(C(=O)NO)cc2)cc1`, the melting point lay within 205 to 210 °C.

Compound `CC(C)Cn1cnc2c(N)nc3ccc(-c4cccnc4)cc3c21` came in with a melting point of 244 to 246 °C.

For `CCOC(=O)c1ncc2[nH]c3cccc(O)c3c2c1COC`, the melting point lay in the range of 179 to 181 °C.

Turning to `O=C1CCC(c2ccc(-c3ccccc3Cl)o2)O1` (configuration not stated), the melting point was in the range of 101 to 103 °C.

In turn, `CC(C)(C)c1nc(-c2nn(-c3ccc(F)cc3F)c3c2C2CCC3C2)n[nH]1` (configuration not stated) came in with a melting point of 268 to 269 °C.

Take `CN(C(=O)Cc1cccc2ccccc12)C1c2ccccc2CC1N1CCCC1` (configuration not stated): the melting point was determined as 127 °C.

Regarding `O=C(O)C=CC(=O)c1ccc(F)cc1`, the melting point lay in the range of 130 to 132 °C.

In the case of `CCC1(CC)c2cc(Br)ccc2-c2ccc(C=O)cc21`, the melting point fell in the range of 126 to 128 °C.

`CN(C)C(=O)c1ccc(N2CCN(Cc3cnc4c(c3)NC(=O)[C@@H]3CCCN43)CC2)cc1` gave a melting point of 99.2 °C.

With `COC(=O)c1ccc(C(=O)Nc2cc3c4c(c2)CCCC4(C)CCC3)s1`, the melting point was determined as 212 °C.

For `CCCC(Oc1ccc(Cl)c(C)c1)C(=O)NCc1ccccc1` (configuration not stated), the melting point was in the range of 75 to 78 °C.

For `c1ccc(OCc2nnn[nH]2)cc1`, the melting point was 128 to 131 °C.

As for `O=c1c2cccnc2n(-c2cccc([N+](=O)[O-])c2)c(=O)n1Cc1ccccc1`, the melting point fell in the range of 219 to 220 °C.

Turning to `CCn1ncc2c(Cl)c3c(nc21)C(O)c1ccccc1CC3` (configuration not stated), the melting point lay in the range of 128 to 130 °C.

The compound `COC(=O)c1c(N)cc(OC)c(OC)c1OC` had a melting point of 94 to 96 °C.

As to `COC(=O)c1cccc(C(=O)c2[nH]c3cc(Cl)ccc3c2N)c1`, the melting point is 187 to 189 °C.

For the compound `CC(=O)Nc1cccc(C(C)=O)c1C(=O)O`, the melting point worked out at 131 °C.

`COc1cc(C)cc(-c2nn(CC#N)cc2-c2ccnc(S(C)(=O)=O)n2)c1`: the melting point worked out at 238 °C.

For the compound `Cc1nc2c3c(ccn2c1C)[C@H](O)[C@](O)(Cc1ccccc1)[C@@H](c1ccccc1)N3`, the melting point fell in the range of 115 to 122 °C.

`CCCOc1ccc(-c2nc3n(c2-c2ccncc2)CCC3)cc1` displayed a melting point of 148 to 150 °C.

`Cc1cc(C)c(/C=C/[C@@H](O)C[C@@H](O)CC(=O)OCOC(=O)C(C)(C)C)c(-c2ccc(F)c(C)c2)c1` had a melting point of 97 to 98 °C.

`C[C@H]1CCCC(C)(C)[C@@H]1[C@H](O)c1ccc(OC(F)(F)F)cc1` returned a melting point of 29 to 33 °C.

As to `CCOCCOCCOc1cc(N2C(=O)C3=C(CCCC3)C2=O)c(F)cc1Cl`, the melting point is 61 °C.

In turn, `CCOC(=O)C1=C(C)NNC(CC)=C1c1ccco1` came in with a melting point of 82 °C.

As for `COC(=O)[C@@H]1CCCN1C(=O)CCC(=O)c1ccccc1`, the melting point lay in the range of 66 to 70 °C.

In the case of `CCC#CC1(C(F)(F)F)OC(=O)Nc2ccc(OC)cc21` (configuration not stated), the melting point lay within 161 to 162 °C.

The compound `COc1cc2cc3ncc(C#N)c(Cl)c3cc2cc1OC` returned a melting point above 265 °C.

Regarding `CC1(CCCCn2c(=O)oc3ccccc32)Cn2cc([N+](=O)[O-])nc2O1` (configuration not stated), the melting point fell in the range of 155 to 158 °C.

As for `Clc1ccc(-c2cncn3cnnc23)cc1`, the melting point lay in the range of 193 to 195 °C.

`COC(=O)C1CCc2ccc(O)cc2C1` (configuration not stated) gave a melting point of 83 to 84 °C.

`CC(=O)c1c(F)cc2c(=O)c(C(=O)O)cn3c2c1OCC3C` (configuration not stated): the melting point was 258 to 259 °C.

In turn, `O=c1oc(-c2ccc(S(=O)c3ccccc3)cc2)cc(O)c1SCCc1ccccc1` (configuration not stated) showed a melting point of 171 to 173 °C.

Consider `COc1ccc2ccc(C(=O)NC(C)C)c(OC(C)C)c2c1`, for which the melting point was in the range of 62 to 64 °C.

Compound `NC(=O)c1nnc2n1-c1ccc(Cl)cc1C(c1ccccc1)=NC2` showed a melting point of 285 to 289 °C.

`CC1C(CCc2ccccc2)SC2=CC=NC3=CC=CC(c4ccccc4)C321` (configuration not stated) came in with a melting point of 210 °C.

As to `COCCNC(=O)c1cccc(NC(=O)Oc2ccccc2)c1`, the melting point lay within 142 to 150 °C.

Consider `CCOC(=O)c1c(CN2CCOCC2)nc2cc(OCC)c(OCC)cc2c1-c1ccc(OC)c(OC)c1`, for which the melting point was 147 to 148 °C.

In turn, `CN(CCNCc1c(O)c(Br)cc2c1CCC2(C)C)CCNC(=O)c1nc(Cl)c(N)nc1N` displayed a melting point of 134 to 136 °C.

For `CO/C=C(/C(=O)OC)c1ccccc1Oc1nc(Cl)nc(Oc2ccccc2)n1`, the melting point fell in the range of 103 to 104 °C.

The compound `Fc1cccc2cc3cccc(F)c3nc12` showed a melting point of 193 to 195 °C.

Compound `O=C(CCCCCl)c1cc2c3c(c1)CCC(=O)N3CCC2` registered a melting point of 83 to 84 °C.

Compound `Oc1ccc2c(c1)CCCC(c1ccccc1)=C2c1ccc(OCCCCCSCc2ccco2)cc1` had a melting point of 171 °C.

Consider `O=C(O)CCC/C=C\C[C@@H]1[C@H]2CC[C@H](C2)[C@H]1NC(=O)c1csc2ccc(O)cc12`, for which the melting point was in the range of 141 to 142 °C.

Consider `O=C1NN=C(c2ccc(NC(=O)C3(Cl)CC3)cc2)C2CC12` (configuration not stated), for which the melting point lay within 221 to 222 °C.

For `COc1ccc(CC(=O)Nc2cc(-c3c(-c4cccc(C)c4)nc4cccnn34)ccn2)cc1`, the melting point lay within 213 to 214 °C.

On to `CSCc1cnc2c(C)cccc2c1O`, for which the melting point fell in the range of 226 to 228 °C.

As to `Cc1ccc2c(c1)oc1c(C(=O)O)nn(-c3ccc(Cl)cc3Cl)c12`, the melting point fell in the range of 228 to 230 °C.

Consider `CCSc1nc(-c2ccccc2)c(-c2ccccc2)s1`, for which the melting point was in the range of 73 to 74 °C.

On to `CCCc1nc2c(C)cccc2n1Cc1ccc(-c2ccccc2-c2nnn[nH]2)nc1`, for which the melting point lay within 169 to 170 °C.

On to `N#Cc1ccc(C(=O)c2ccc(O)c(F)c2)cc1`, for which the melting point was 168 to 170 °C.

Regarding `Nc1ncnc2c1ncn2OCCSCP(=O)(O)O`, the melting point fell in the range of 211 to 213 °C.

Consider `CCc1cc(NC(C)=O)c(C=O)c(CC)n1`, for which the melting point was 91 to 92 °C.

Compound `Brc1c(C2=NOCCS2)sc2ccccc12` gave a melting point of 80 to 85 °C.

The compound `CSc1ccc2ccc(N)nc2n1` came in with a melting point of 158 °C.

For the compound `CC(C)[C@H](NC(=O)OCc1ccccc1)C(=O)NCC(=O)OC(C)(C)C`, the melting point lay in the range of 139 to 141 °C.

As for `COC(=O)Nn1c(N)c(C#N)c(C)c1-c1ccccc1`, the melting point was 178 to 179 °C.

For `CCn1c(N)c(-c2ncc[nH]2)c(=O)c2ccc(-c3ccc(CCCC(=O)NCc4ccncc4)cc3)nc21`, the melting point amounted to 240 °C.

Consider `CCOC(=O)N1CCN(C(=O)/C=C/S(=O)(=O)c2ccccc2)CC1`, for which the melting point was 116 to 117 °C.

Compound `CC(C)C[C@@H](OC(=O)c1cccnc1)C(=O)O` came in with a melting point of 101 to 103 °C.

Regarding `Clc1ccc(CCC(Cn2ccnc2)Sc2c(Cl)cc(Cl)cc2Cl)cc1` (configuration not stated), the melting point was 132 °C.

As to `OCc1cnoc1-c1cc(Cl)cc(Cl)c1`, the melting point is 104 to 105 °C.

For the compound `COc1ccc(CS(=O)(=O)c2cc3ccc(OC)cc3oc2=O)cc1`, the melting point is 179 to 180 °C.

`CCCC(C(C)C)C(CN)CC(=O)O` (configuration not stated): the melting point fell in the range of 160 to 170 °C.

`CCCn1nc2c(N)nc3ccccc3c2c1CCNC(=O)c1cccnc1` showed a melting point of 219 to 221 °C.

Consider `CNc1ccc(-n2nc3c4ccccc4[nH]cc-3c2=O)cc1`, for which the melting point lay in the range of 302 to 304 °C.

In turn, `Nc1ccc(-c2noc(-c3cnn4c(C(F)(F)F)cc(-c5ccc(C(F)(F)F)c(F)c5)nc34)n2)cn1` gave a melting point of 233 °C.

The compound `CCCc1nc(C(C)(O)CC)c(C#N)[nH]1` (configuration not stated) returned a melting point of 157 to 159 °C.

`N#CN=C(NCC(=O)O)Nc1cccc(Cl)c1`: the melting point was 109 °C.

`COc1cc(C(C)C)c2c(c1)S(=O)(=O)N(CCl)C2=O` gave a melting point of 151 to 152 °C.

Regarding `O=S(=O)(O)c1ccc(Nc2ncnc3cc(Cl)ccc23)cc1`, the melting point is above 300 °C.

`CCOC(=O)c1c(Cn2cncn2)nc2cc(OC)c(OC)cc2c1-c1ccc(OC)c(OC)c1` came in with a melting point of 176 to 177 °C.

As to `O=C(O)Cn1c(=O)[nH]c(=O)c2ccc(Cl)cc21`, the melting point turned out to be 306 °C.

Regarding `CC(=O)NC(Cc1c[nH]c2ccccc12)C(=O)OC(c1ccccc1)c1ccccc1` (configuration not stated), the melting point lay within 147 to 148 °C.

As to `COc1c(Cl)nc(C(=O)O)c(Cl)c1N`, the melting point lay within 154 to 156 °C.

`N#CC(CCCCCC(=O)O)c1ccc2ccccc2c1` (configuration not stated) came in with a melting point of 88 to 89 °C.

Compound `CNc1nc(-c2ccccc2)c(-c2nc3ccccc3c(=O)n2-c2ccc(Cl)cc2)s1` showed a melting point above 275 °C.

One may read the melting point as the temperature of the solid-liquid transition.
